Data from ChEMBL document CHEMBL1140651, “N-(6,7-dichloro-2,3-dioxo-1,2,3,4-tetrahydroquinoxalin-5-yl)-N-alkylsulfonamides as peripherally restricted N-methyl-D-aspartate receptor antagonists for the treatment of pain” (Bioorg Med Chem Lett, 2007).
Values after ≈ are worked out from the molar mass of the structure shown. Values joined by “and” are separate entries in the source; they are usually repeats but may differ in a detail not shown here. Equal values may be shown once.

Legend:
Liver microsomes [1] = assay: Metabolic stability in human liver microsome; assay type: ADME
Liver microsomes [2] = assay: Metabolic stability in rat liver microsome; assay type: ADME
[3] = (§1) Bioavailability in Sprague-Dawley rat at 5 mg/kg, po; assay type: ADME, organism-based; conditions: Sprague-Dawley, in vivo
Rattus norvegicus [4] = assay: Anticonvulsant activity in Swiss Webster mouse at 100 mg/kg by MES assay; assay type: functional
[5] = AUC in Sprague-Dawley rat at 5 mg/kg, po; assay type: ADME, organism-based; parameters: dose 5 mg/kg, route oral; conditions: plasma
[6] = biological target: Glutamate receptor ionotropic, NMDA 1 (Homo sapiens, UniProt Q05586); assay: Antagonist activity at human NMDA NR1 receptor; assay type: functional
[7] = Solubility of the compound; assay type: physicochemical
[8] = Permeability from apical to basolateral side of the Caco-2 cell membrane; assay type: ADME, cell-based; conditions: human, read-out: permeability
Caco-2 = assay: Ratio of permeability from basolateral to apical over apical to basolateral side of the Caco-2 cell membrane; assay type: ADME, cell-based; conditions: human
Rattus norvegicus [9] = assay: […] in […] at 300 mg/kg, ip by MES assay; assay type: functional; conditions: route intraperitoneal
Rattus norvegicus [10] = assay: Analgesic activity in rat formalin pain model assessed as reduction in pain response at 50 mg/kg, ip; assay type: functional; parameters: scale not given: the % may be the effect or the level left; conditions: route intraperitoneal
Rattus norvegicus [11] = assay: as §1; assay type: ADME, organism-based; conditions: in vivo
Rattus norvegicus [12] = assay: Analgesic activity in rat formalin pain model assessed as reduction in pain response at 50 mg/kg, po; assay type: functional; parameters: scale not given: the % may be the effect or the level left

Row | Compound | Activity (Liver microsomes [1]) | Activity (Liver microsomes [2]) | bioavailability [3] [%] | Activity (Rattus norvegicus [4]) [%] | AUC [5] [ng·h/mL] | IC50 [6] | solubility [7] [µg/mL] | Papp A→B [8] [×10⁻⁶ cm/s] | Ratio (Caco-2) | Activity (Rattus norvegicus [9]) [%] | Activity (Rattus norvegicus [10]) [%] | F (Rattus norvegicus [11]) | Activity (Rattus norvegicus [12]) [%]
1 | Cc1c(Cl)cc2[nH]c(=O)c(=O)[nH]c2c1N(CC(=O)O)S(C)(=O)=O | Active | Active | 7 | 87.5 | 1500 | 2 nM | – | – | – | – | – | – | –
2 | CC(O)CN(c1c(Cl)c(Cl)cc2[nH]c(=O)c(=O)[nH]c12)S(C)(=O)=O (stereo unspecified) | Active | Active | 1 | – | 680 | 40 nM | 76 (≈ 199 µM) | – | – | – | – | – | –
3 | COc1cccc(CN(c2c(Cl)c(Cl)cc3[nH]c(=O)c(=O)[nH]c23)S(C)(=O)=O)c1 | Active | Active | 8 | – | 152 | 12 nM | 40 (≈ 90 µM) | 3.43 | 4.67 | – | – | – | –
4 | Cc1cc2[nH]c(=O)c(=O)[nH]c2c(N(CC(=O)O)S(C)(=O)=O)c1Cl | Active | Active | 5 | 62.5 | 155 | 1 nM | 72 (≈ 199 µM) | – | – | – | – | – | –
5 | CS(=O)(=O)N(Cc1cccc(F)c1)c1c(Cl)c(Cl)cc2[nH]c(=O)c(=O)[nH]c12 | Active | Active | 10 | – | 589 | 45 nM | 23 (≈ 53.2 µM) | 1.75 | 4.07 | – | – | – | –
6 | CS(=O)(=O)N(CC1CCCO1)c1c(Cl)c(Cl)cc2[nH]c(=O)c(=O)[nH]c12 (stereo unspecified) | Active | Active | 31 | – | 922 | 59 nM | 16 (≈ 39.2 µM) | 1.52 | 7.55 | – | – | – | –
7 | COCCN(c1c(Cl)c(Cl)cc2[nH]c(=O)c(=O)[nH]c12)S(C)(=O)=O | Active | Active | 33 | – | 1080 | 38 nM | 76 (≈ 199 µM) | 0.01 | – | – | – | – | –
8 | CCOCCN(c1c(Cl)c(Cl)cc2[nH]c(=O)c(=O)[nH]c12)S(C)(=O)=O | Active | Active | 78 | – | 2260 | 209 nM | 79 (≈ 199 µM) | 10 | 1.38 | – | – | – | –
9 | CS(=O)(=O)N(CCC(F)(F)F)c1c(Cl)c(Cl)cc2[nH]c(=O)c(=O)[nH]c12 | Active | Active | – | – | – | 22 nM and 11 nM and 18 nM | 56 (≈ 133 µM) | 0.41 | 15 | 0 | 40 | – | –
10 | COCCN(c1c(Cl)c(C)cc2[nH]c(=O)c(=O)[nH]c12)S(C)(=O)=O | Active | Active | 57 | – | 1190 | 77 nM | 72 (≈ 199 µM) | 0.14 | 30.6 | – | – | – | –
11 | COCCN(c1c(C)c(Cl)cc2[nH]c(=O)c(=O)[nH]c12)S(C)(=O)=O | Active | Active | 100 | – | 2620 | 74 nM | 72 (≈ 199 µM) | 0.01 | – | – | – | – | –
12 | CCc1cc2[nH]c(=O)c(=O)[nH]c2c(N(CCCOC)S(C)(=O)=O)c1Cl | Active | Active | 47 | – | 632 | 49 nM | 78 (≈ 200 µM) | 0.01 | – | – | – | – | –
13 | CS(=O)(=O)N(CC1CCCCO1)c1c(Cl)c(Cl)cc2[nH]c(=O)c(=O)[nH]c12 (stereo unspecified) | Active | Active | 53 | – | 1490 | 39 nM | 25 (≈ 59.2 µM) | < 0.01 | – | – | – | – | –
14 | CCOCCOCCN(c1c(Cl)c(Cl)cc2[nH]c(=O)c(=O)[nH]c12)S(C)(=O)=O | Active | Active | 90 | – | 840 | 166 nM | 88 (≈ 200 µM) | 0.97 | 12.4 | – | – | – | –
15 | COCCCN(c1c(Cl)c(Cl)cc2[nH]c(=O)c(=O)[nH]c12)S(C)(=O)=O | Active | Active | 41 | – | – | – | 79 (≈ 199 µM) | 2.06 | 6.05 | 20 | – | 43% and 39% | –
16 | CCS(=O)(=O)N(CCC(F)(F)F)c1c(Cl)c(Cl)cc2[nH]c(=O)c(=O)[nH]c12 | Active | Active | 32 | – | 3920 | 109 nM and 20 nM and 27 nM | – | – | – | 0 | 60 | – | 30
17 | COCCCN(c1cc(Cl)cc2[nH]c(=O)c(=O)[nH]c12)S(C)(=O)=O | Active | Active | – | – | – | 728 nM | 72 (≈ 199 µM) | 0.01 | 0.1 | – | – | – | –
18 | CCOCCCN(c1c(Cl)c(Cl)cc2[nH]c(=O)c(=O)[nH]c12)S(C)(=O)=O | Active | Active | 33 | – | 1270 | 19 nM | 82 (≈ 200 µM) | 0.44 | 28.4 | – | – | – | –
19 | CS(=O)(=O)N(CCCO)c1c(Cl)c(Cl)cc2[nH]c(=O)c(=O)[nH]c12 | Active | Active | 1 | – | 136 | 41 nM | 76 (≈ 199 µM) | – | – | – | – | – | –
20 | CCc1c(Cl)cc2[nH]c(=O)c(=O)[nH]c2c1N(CCO)S(C)(=O)=O | Active | Active | 1 | 0 | 183 | 58 nM | 72 (≈ 199 µM) | – | – | – | – | – | –
21 | CS(=O)(=O)N(CC(=O)O)c1c(Cl)c(Cl)cc2[nH]c(=O)c(=O)[nH]c12 | Active | Active | – | 100 | 393 | 2 nM | 76 (≈ 199 µM) | – | – | – | – | – | –
22 | Cc1c(Cl)cc2[nH]c(=O)c(=O)[nH]c2c1N(CCO)S(C)(=O)=O | Active | Active | 4 | 0 | 605 | 14 nM | 70 (≈ 201 µM) | – | – | – | – | – | –
23 | Cc1cc2[nH]c(=O)c(=O)[nH]c2c(N(CCO)S(C)(=O)=O)c1Cl | Active | Active | 9 | 0 | 791 | 4 nM | 70 (≈ 201 µM) | – | – | – | – | – | –
